Measured values: patent publication US10857110B2, “Antibacterial compounds” (CONSEJO NACIONAL DE INVESTIGACIONES CIENTÍFICAS Y TÉCNICAS …, priority 2016, dated 2020)

Tests used:
Assay in all cases: MIC/MBC antibiotic sensitivity (CLSI)
[1] = tested on: Burkholderia cenocepacia (CBC 035); format: cell-based; settings: Burkholderia cenocepacia; Tobramucin, CLSI criteria; B. cenocepacia (CBC 035); read-out: MIC (R/I/S category)
Description: (§1) The new compounds of the invention were synthesized following the general method of preparation (Tetrahedron, 2001, 57, 1671-1675), from the reaction between an intermediary compound of the acyl thiourea and HgCl2 in presence of trimethylamine. The products were adequately characterized regarding its chemistry. The antibacterial activity of the new compounds was assayed against two Gram-positive reference strains: Staphylococcus aureus (ATCC6538) and Bacillus cereus (ATCC10876), a fermenting Gram-negative strain: Escherichia coli (ATCC25922), and 26 non-fermenting Gram-negative isolates, including 3 reference strains: Pseudomonas aeruginosa (PAO1), Bordetella bronchiseptica (9.73H+), and Inquilinus limosus (DSM16000), and 23 isolates recovered from patients suffering from cystic fibrosis, including one Achromobacter xylosoxidans isolate, and 22 isolates belonging to the Burkholderia cepacia complex. The later were selected because they presented resistance to a high number of antimicrobial compounds, among a panel of 125 clinical isolates previously analyzed for its resistance against 17 antimicrobial compounds (1,2). The antibiotic sensitivity studies were performed by applying two quantitative methods which allow to determine the minimum inhibitory concentration (MIC) and the minimum bactericidal concentration (MBC).
(§2) The compounds obtained in Examples 1 and 2 were assayed against 23 isolates recovered from the sputum of patients suffering from cystic fibrosis being treated at the Sor Maria Ludovica Children Hospital (La Plata, Buenos Aires, Argentina). Nineteen of these isolates were selected for being highly resistant to most of the antimicrobial agents of clinical use from a panel of 125 isolates previously characterized in Martina et al. (1). Reference strains were also included: Gram (+) bacteria: B. cereus and S. aureus, fermenting Gram (−) bacteria: E. coli, and non-fermenting Gram (−) bacteria: Inquilinus limosus (DSM16000), B. bronchiseptica, and Pseudomonas aeruginosa (PAO1). The antibiotic sensitivity studies were performed applying two quantitative methods which allow to determine the minimum inhibitory concentration (MIC) and the minimum bactericidal concentration (MBC) according to the criteria established by the Clinical and Laboratory Standards Institute (CLSI) (4). For comparative purposes, three antibiotics commonly used in the treatment of pulmonary infections in cystic fibrosis patients were included in the study: tobramycin, ceftazidime and meropenem.

[2] = tested on: Burkholderia cenocepacia (HE001); format: cell-based; settings: Burkholderia cenocepacia; Tobramucin, CLSI criteria; B. cenocepacia (HE001); read-out: MIC (R/I/S category)
Description: as §1, §2

[3] = tested on: Burkholderia multivorans (CBC 018); format: cell-based; settings: Burkholderia multivorans; Tobramucin, CLSI criteria; B. multivorans (CBC 018); read-out: MIC (R/I/S category)
Description: as §1, §2

B. contaminans (HNBC001) = format: cell-based; settings: Tobramucin, CLSI criteria, read-out: MIC (R/I/S category)
Description: as §1, §2

[4] = tested on: Burkholderia multivorans (CBC 019); format: cell-based; settings: Burkholderia multivorans; Tobramucin, CLSI criteria; B. multivorans (CBC 019); read-out: MIC (R/I/S category)
Description: as §1, §2

[5] = tested on: Burkholderia cepacia (CBC 011); format: cell-based; settings: Burkholderia cepacia; Tobramucin, CLSI criteria; B. cepacia (CBC 011); read-out: MIC (R/I/S category)
Description: as §1, §2

[6] = tested on: Burkholderia cenocepacia (CBC 031); format: cell-based; settings: Burkholderia cenocepacia; Tobramucin, CLSI criteria; B. cenocepacia (CBC 031); read-out: MIC (R/I/S category)
Description: as §1, §2

[7] = tested on: Burkholderia cepacia (CBC 010); format: cell-based; settings: Burkholderia cepacia; Tobramucin, CLSI criteria; B. cepacia (CBC 010); read-out: MIC (R/I/S category)
Description: as §1, §2

[8] = tested on: Inquilinus limosus (DSM16000); format: cell-based; settings: Tobramucin, CLSI criteria, read-out: MIC (R/I/S category)
Description: as §1, §2

[9] = tested on: Burkholderia cenocepacia (CBC 029); format: cell-based; settings: Burkholderia cenocepacia; Tobramucin, CLSI criteria; B. cenocepacia (CBC 029); read-out: MIC (R/I/S category)
Description: as §1, §2

[10] = tested on: Bordetella bronchiseptica (9.73H+); format: cell-based; settings: B. bronchiseptica (9.73H+)
Description: as §1, §2

[11] = tested on: Burkholderia multivorans (CBC 022); format: cell-based; settings: Burkholderia multivorans; Tobramucin, CLSI criteria; B. multivorans (CBC 022); read-out: MIC (R/I/S category)
Description: as §1, §2

[12] = tested on: Staphylococcus aureus (ATCC6538); format: cell-based; settings: Staphylococcus aureus, S. aureus (ATCC6538)
Description: as §1, §2

[13] = tested on: Burkholderia seminalis (CBC 040); format: cell-based; settings: Burkholderia seminalis; Tobramucin, CLSI criteria; B. seminalis (CBC 040); read-out: MIC (R/I/S category)
Description: as §1, §2

[14] = tested on: Escherichia coli (ATCC25922); format: cell-based; settings: Escherichia coli, E. coli (ATCC25922)
Description: as §1, §2

[15] = tested on: Burkholderia cenocepacia (CBC 024); format: cell-based; settings: Burkholderia cenocepacia; Tobramucin, CLSI criteria; B. cenocepacia (CBC 024); read-out: MIC (R/I/S category)
Description: as §1, §2

[16] = tested on: Burkholderia seminalis (CBC 042); format: cell-based; settings: Burkholderia seminalis; Tobramucin, CLSI criteria; B. seminalis (CBC 042); read-out: MIC (R/I/S category)
Description: as §1, §2

[17] = tested on: Burkholderia multivorans (CBC 021); format: cell-based; settings: Burkholderia multivorans; Tobramucin, CLSI criteria; B. multivorans (CBC 021); read-out: MIC (R/I/S category)
Description: as §1, §2

[18] = tested on: Burkholderia cenocepacia (CBC 032); format: cell-based; settings: Burkholderia cenocepacia; Tobramucin, CLSI criteria; B. cenocepacia (CBC 032); read-out: MIC (R/I/S category)
Description: as §1, §2

[19] = tested on: Burkholderia cenocepacia (CBC 023); format: cell-based; settings: Burkholderia cenocepacia; Tobramucin, CLSI criteria; B. cenocepacia (CBC 023); read-out: MIC (R/I/S category)
Description: as §1, §2

[20] = tested on: Burkholderia multivorans (CBC 020); format: cell-based; settings: Burkholderia multivorans; Tobramucin, CLSI criteria; B. multivorans (CBC 020); read-out: MIC (R/I/S category)
Description: as §1, §2

[21] = tested on: Bacillus cereus (ATCC10876); format: cell-based
Description: as §1, §2

[22] = tested on: Burkholderia multivorans (CBC 015); format: cell-based; settings: Burkholderia multivorans; Tobramucin, CLSI criteria; B. multivorans (CBC 015); read-out: MIC (R/I/S category)
Description: as §1, §2

[23] = tested on: Achromobacter xylosaxidans (HNA001); format: cell-based, Achromobacter xylosoxidans; settings: Achromobacter; Tobramucin, CLSI criteria; A. xylosaxidans (HNA001); read-out: MIC (R/I/S category)
Description: as §1, §2

NC[C@H]1O[C@H](O[C@H]2[C@H](O)[C@@H](O[C@H]3O[C@H](CO)[C@@H](O)[C@H](N)[C@H]3O)[C@H](N)C[C@@H]2N)[C@H](N)C[C@@H]1O [Tobramucin, tobramycin]
> 16 µg/mL: MIC [1] | MIC [2] | MIC [3] | MIC (B. contaminans (HNBC001)) | MIC [4] | MIC [5] | MIC [6] | MIC [7] | MIC [8] | MIC [9] | MIC [11] | MIC [13] | MIC [15] | MIC [16] | MIC [17] | MIC [18] | MIC [19] | MIC [20] | MIC [22] | MIC [23]
15.6 µg/mL: MBC ([14]; read-out: MBC) | MIC ([14]; read-out: MIC)
7.81 µg/mL: MIC ([21]; read-out: MIC)
1.95 µg/mL: MBC ([12]; read-out: MBC) | MIC ([12]; read-out: MIC)
62.5 µg/mL: MBC ([10]; read-out: MBC) | MIC ([10]; read-out: MIC)
31.2 µg/mL: MBC ([21]; read-out: MBC)
